Results on ten compounds are retold here after PubChem BioAssay AID588771 (The Scripps Research Institute Molecular Screening Center, 2011).

Calls of active or inactive are those of the source. The rule behind the calls is not given here.

This test deals with 3C-like protease (3CLpro), SARS coronavirus. Description: SARS 3CLpro protease inhibitor potency, late-stage follow-up, biochemical, fluorescence, dose response, set 3 (AID 588771). To be noted: purified 3CLpro, fluorogenic substrate cleavage.
As for `CC(C)(C)NC(=O)C(c1cccnc1)N(C(=O)c1ccco1)c1ccc(Cc2ccccc2)cc1` (stereo not given), the IC50 (in general, the concentration needed to halve the response being measured) is “inactive”.

On to `CC(C)(C)NC(=O)C(c1cnccn1)N(C(=O)c1ccco1)c1ccc(C(C)(C)C)cc1` (stereo not given), for which the IC50 is 5.5 µM. The result for `Cn1cnc(C(=O)N(c2ccc(C(C)(C)C)cc2)C(C(=O)NC(C)(C)C)c2cccnc2)c1` (stereo not given) reads “inactive”; that for `CC(C)(C)NC(=O)C(c1ccnnc1)N(C(=O)c1ccco1)c1ccc(C(C)(C)C)cc1` (stereo not given), “inactive”; that for `O=C(Nc1ccc(N(C(=O)Cn2nnc3ccccc32)C(C(=O)NCc2ccccc2)c2cccc(F)c2)cc1)C1CCC1` (stereo not given), 2.3 µM.

Regarding `CC(C)C(=O)Nc1ccc(N(C(=O)Cn2nnc3ccccc32)C(C(=O)NCc2ccccc2)c2cccc(F)c2)cc1` (stereo not given), the half-maximal inhibitory concentration (IC50) is 4.1 µM. The result for `CC(C)(C)NC(=O)[C@@H](c1cccnc1)N(C(=O)c1cnc[nH]1)c1ccc(C(C)(C)C)cc1` reads “inactive”. Take `CC(C)(C)NC(=O)[C@H](c1cccnc1)N(C(=O)c1cnc[nH]1)c1ccc(C(C)(C)C)cc1`: the IC50 is 4.5 µM. The result for `O=C(Nc1ccc(N(C(=O)Cn2nnc3ccccc32)C(C(=O)NCc2ccccc2)c2cccc(F)c2)cc1)C1CC1` (stereo not given) reads 3 µM.

For `CC(C)(C)NC(=O)C(c1ccncc1)N(C(=O)c1ccco1)c1ccc(C(C)(C)C)cc1` (stereo not given), the IC50 entry is “inactive”.
